What was measured:
human mGluR5d = molecular target: T1, human mGluR5d (Homo sapiens, UniProt P41594); assay: FLIPR assay, mobilization of intracellular calcium in cells expressing mGluR5d; assay type: cell-based
T1 construct: expressed in transfected cells; The IP3 assay uses GHEK cells stably expressing human mGluR5d
Excerpt: The properties of the compounds of the invention can be analyzed using standard assays for pharmacological activity. Examples of glutamate receptor assays are well known in the art as described in for example Aramori et al, Neuron 8:757 (1992), Tanabe et al., Neuron 8:169 (1992), Miller et al., J. Neuroscience 15: 6103 (1995), Balazs, et al., J. Neurochemistry 69:151 (1997). The methodology described in these publications is incorporated herein by reference. Conveniently, the compounds of the invention can be studied by means of an assay (FLIPR) that measures the mobilization of intracellular calcium, [Ca^2+]i in cells expressing mGluR5 or another assay (IP3) that measures inositol phosphate turnover.
Cells expressing human mGluR5d as described in WO97/05252 are seeded at a density of 100,000 cells per well on collagen coated clear bottom 96-well plates with black sides and experiments are done 24 h following seeding. […] The fluorescence signal is sampled 50 times at 1 second intervals followed by 3 samples at 5 second intervals immediately after each of the two additions. Responses are measured as the difference between the peak height of the response to agonist, less the background fluorescence within the sample period. […]

[1] = Determination of brain to plasma ratio in rat; assay type: in vivo, female Sprague Dawley rats; details: female, Sprague-Dawley, brain and plasma, read-out: Brain to Plasma Ratio of compound in Rat
Protocol: Brain to plasma ratios are estimated in female Sprague Dawley rats. The compound is dissolved in water or another appropriate vehicle. For determination of brain to plasma ratio the compound is administrated as a subcutaneous, or an intravenous bolus injection, or an intravenous infusion, or an oral administration. At a predetermined time point after the administration a blood sample is taken with cardiac puncture. The rat is terminated by cutting the heart open, and the brain is immediately retained. The blood samples are collected in heparinized tubes and centrifuged within 30 minutes, in order to separate the plasma from the blood cells. The plasma is transferred to 96-well plates and stored at −20° C. until analysis. The brains are divided in half, and each half is placed in a pre-tarred tube and stored at −20° C. until analysis. Prior to the analysis, the brain samples are thawed and 3 ml/g brain tissue of distilled water is added to the tubes. The brain samples are sonicated in an ice bath until the samples are homogenized. Both brain and plasma samples are precipitated with acetonitrile. After centrifugation, the supernatant is diluted with 0.2% formic acid. […] After reconstitution of the residuals the samples are ready for injection onto the HPLC column.

T1 sequence (P41594 21-942 isoform P41594-3 limits assumed): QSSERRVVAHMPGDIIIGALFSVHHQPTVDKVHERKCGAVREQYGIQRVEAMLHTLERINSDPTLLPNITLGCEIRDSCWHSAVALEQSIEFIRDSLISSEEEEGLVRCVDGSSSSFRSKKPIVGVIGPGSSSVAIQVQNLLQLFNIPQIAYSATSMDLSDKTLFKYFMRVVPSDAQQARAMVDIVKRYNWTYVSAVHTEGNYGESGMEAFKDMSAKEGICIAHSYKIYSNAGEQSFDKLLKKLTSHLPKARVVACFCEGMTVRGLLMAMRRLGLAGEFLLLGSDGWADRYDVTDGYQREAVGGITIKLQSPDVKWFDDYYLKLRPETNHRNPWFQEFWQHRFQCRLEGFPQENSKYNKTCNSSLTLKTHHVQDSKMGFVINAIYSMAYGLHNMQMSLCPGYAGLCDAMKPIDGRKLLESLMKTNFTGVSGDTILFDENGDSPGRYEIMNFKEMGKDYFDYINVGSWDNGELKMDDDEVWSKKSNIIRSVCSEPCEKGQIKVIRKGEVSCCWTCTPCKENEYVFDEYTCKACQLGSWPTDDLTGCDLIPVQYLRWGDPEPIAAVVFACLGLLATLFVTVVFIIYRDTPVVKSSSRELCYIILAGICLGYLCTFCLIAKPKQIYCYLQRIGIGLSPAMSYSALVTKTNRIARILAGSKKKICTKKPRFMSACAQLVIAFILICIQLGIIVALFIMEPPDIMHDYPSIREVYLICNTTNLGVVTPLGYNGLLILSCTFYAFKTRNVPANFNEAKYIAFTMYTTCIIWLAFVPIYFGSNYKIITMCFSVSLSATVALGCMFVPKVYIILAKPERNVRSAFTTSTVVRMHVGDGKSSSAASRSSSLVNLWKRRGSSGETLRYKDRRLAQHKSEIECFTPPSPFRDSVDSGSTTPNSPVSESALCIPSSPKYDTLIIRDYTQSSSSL

For `COc1cc(-c2nnc3n2CCCN3Cc2cc(-c3cccc(Cl)c3)on2)ccn1` [Example 11.2, 8-{[5-(3-Chlorophenyl)isoxazol-3-yl]methyl}-3-(2-methoxypyridin-4-yl)-5,6,7,8-tetrahydro[1,2,4]triazolo[4,3-a]pyrimidine], the IC50 (human mGluR5d) was 0.051 µM and the Kp [1] was 0.36.

Source: patent US20070259895A1, “MGluR5 modulators VI” (AstraZeneca AB, priority 2006, published 2007)
